Experiment [1] deals with E. coli RYC1000 harboring plasmid pBGAmpC-MHN (AmpC β-lactamase of Enterobacter cloacae). The experiment in a line: microbe, parasite or virus in culture. The note with it: Enterobacter cloacae; Table 3A; AmpC-MHN; CAZ alone; read-out: MIC of ceftazidime (CAZ). The class given is cell-based, Escherichia coli. The method, then: (§1) After incubation, the growth of the cells was visually inspected. The minimum inhibitory concentration (MIC) is the lowest concentration where there no cell growth was observed.
(§2) The following strains were used: Enterobacter cloacae cell line with derepressed β-lactamase production (Ent-Der), and Escherichia coli RYC1000 (araD139 D lacU169 rpsL D rib7 thiA gyrA recA56) cell lines, harboring the plasmid pBGS19 (with no β-lactamase), or the β-lactamase containing plasmids pBGAmpC (AmpC β-lactamase from E. coli; Eco-AmpC), or pBGAmpC-MHN (AmpC β-lactamase from Enterobacter cloacae; Eco-AmpCEnt). […] TEM-10 and TEM-24 differ from TEM-1 due to the following point substitutions: TEM-10 (R164S, E240K); TEM-24 (L102K, L162S, S235T, A237K). TEM-10 and TEM-24 also differ from TEM-1 in being extended spectrum enzymes (i.e., they react with a greater range of substrates than TEM-1). Also tested were clinical isolates of Pseudomonas aeruginosa. All bacterial strains and plasmids are available from Jesus Blazquez and Fernando Baquero, Servicio de Microbiologia, Hospital Ramon y Cajal, National Institute of Health, Madrid, Spain.
(§3) Several ratios, including 1:1, 2:1, 4:1, and 1:3, of β-lactam antibiotic (amoxicillin (AX) or ceftazidime (CAZ)) to boronic acid compound were used in the assays. Tazobactam (TAZO), a clinically used β-lactamase inibitor, was used as a positive control.

The subject of experiment [2] is E. coli RYC1000 harboring plasmid pBGS19 (no β-lactamase). The experiment in a line: microbe, parasite or virus in culture. The class given is cell-based, Escherichia coli. The note with it: Escherichia coli; Table 3A; pBGS19; CAZ alone; read-out: MIC of ceftazidime (CAZ). As to the method: as §1, §2, §3
The test system of experiment [3] is E. coli RYC1000 harboring plasmid pBGTEM-24 (TEM-24 β-lactamase). The experiment in a line: microbe, parasite or virus in culture. The class given is cell-based, Escherichia coli. The note with it: Escherichia coli, Table 3A, CAZ alone, read-out: MIC of ceftazidime (CAZ). As to the method: as §1, §2, §3
Experiment [4] deals with β-lactamase derepressed strain of Enterobacter cloacae (Ent-Der). Kind of experiment: microbe, parasite or virus in culture. The class given is cell-based. The note with it: Enterobacter cloacae; Table 3A; Ent. Der.; CAZ alone; read-out: MIC of ceftazidime (CAZ). The method, then: as §1, §2, §3
The subject of experiment [5] is Citrobacter freundii derrepressed (clinical isolate). Kind of experiment: Antibacterial activity, wider range of bacteria. The class given is cell-based. The note with it: Table 6. The method, then: (§4) Bacterial cell culture testing was performed and interpreted following the guidelines of the National Committee for Clinical Laboratory Standards (National Committee for Clinical Laboratory Standards. Methods for Dilution Antimicrobial Susceptibility Tests for Bacteria that Grow Aerobically. Approved Standard M7-A3. National Committee for Clinical Laboratory Standards, Villanova, Pa. 1993). After incubation, the growth of the cells was visually inspected. The minimum inhibitory concentration (MIC) is the lowest concentration where there no cell growth was observed.
(§5) All bacterial strains and plasmids are available from Jesus Blazquez and Fernando Baquero, Servicio de Microbiologia, Hospital Ramon y Cajal National Institute of Health, Madrid, Spain.

Experiment [6] concerns E. coli derrepr. (clinical isolate). Kind of experiment: Antibacterial activity, wider range of bacteria. The class given is cell-based. The note with it: Table 6. The method, then:
as §4, §5

Experiment [7] deals with Enterobacter cloacae derrepressed (clinical isolate). Kind of experiment: Antibacterial activity, wider range of bacteria. The class given is cell-based. Particulars: Table 6. The method, then: as §4, §5
The subject of experiment [8] is MC4100/AmpC-E. coli (OmpC-). The experiment in a line: Antibacterial activity, wider range of bacteria. Format: cell-based. The note with it: Table 6. As to the method: as §4, §5
Experiment [9] has as its system MC4100/AmpC-E. coli (OmpF-). Kind of experiment: Antibacterial activity, wider range of bacteria. Particulars: Table 6. Format: cell-based. As to the method: as §4, §5
The test system of experiment [10] is MC4100/AmpC-E. coli (OmpR-). Kind of experiment: Antibacterial activity, wider range of bacteria. Particulars: Table 6. Format: cell-based. As to the method:
as §4, §5

Experiment [11] concerns MC4100/AmpC-E. coli. The experiment in a line: Antibacterial activity, wider range of bacteria. Format: cell-based. The note with it: Table 6. As to the method:
as §4, §5

Experiment [12] deals with Pseudomonas aeruginosa-1 (clinical isolate). The experiment in a line: Antibacterial activity, wider range of bacteria. Format: cell-based. The note with it: Table 6. As to the method: as §4, §5
For experiment [13], the system named is MC4 100/AmpC-Enter. Kind of experiment: Antibacterial activity, wider range of bacteria. The class given is cell-based, E. coli. The note with it: Table 6. As to the method: as §4, §5
The subject of experiment [14] is MC4100/AmpC-Enter (OmpC-). Kind of experiment: Antibacterial activity, wider range of bacteria. The note with it: Table 6. The class given is cell-based, E. coli. The method, then: as §4, §5
In experiment [15] the test system is MC4100/AmpC-Enter (OmpF-). The experiment in a line: Antibacterial activity, wider range of bacteria. The class given is cell-based, E. coli. Particulars: Table 6. The method, then:
as §4, §5

For experiment [16], the system named is MC4100/AmpC-Enter (OmpR-). Kind of experiment: Antibacterial activity, wider range of bacteria. Format: cell-based, E. coli. Particulars: Table 6. The method, then: as §4, §5
Experiment [17] relates to Ps. aeruginosa-2 (clinical isolate). Kind of experiment: Antibacterial activity, wider range of bacteria. The class given is cell-based, Pseudomonas aeruginosa. The note with it: Table 6. The method, then:
as §4, §5

Experiment [18] deals with Ps. aeruginosa-3 (clinical isolate). The experiment in a line: Antibacterial activity, wider range of bacteria. Format: cell-based, Pseudomonas aeruginosa. The note with it: Table 6. As to the method:
as §4, §5

Experiment [19] deals with AmpC β-lactamase from E. coli (Escherichia coli, UniProt P00811). Kind of experiment: biochemical. Format: biochemical. Particulars: Ki E. coli AmpC.
Chain of AmpC β-lactamase from E. coli (P00811 20-377): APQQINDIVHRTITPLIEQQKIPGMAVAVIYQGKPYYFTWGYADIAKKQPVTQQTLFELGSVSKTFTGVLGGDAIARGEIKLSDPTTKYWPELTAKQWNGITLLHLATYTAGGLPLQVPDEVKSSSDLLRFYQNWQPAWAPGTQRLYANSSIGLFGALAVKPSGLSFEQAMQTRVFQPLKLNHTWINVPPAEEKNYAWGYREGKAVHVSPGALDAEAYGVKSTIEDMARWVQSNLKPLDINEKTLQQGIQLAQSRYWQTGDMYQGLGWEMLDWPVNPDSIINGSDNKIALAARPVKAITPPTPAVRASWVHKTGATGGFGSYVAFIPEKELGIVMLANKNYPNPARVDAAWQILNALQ
Experiment [20] addresses T1, TEM-1 β-lactamase from E. coli (Escherichia coli, UniProt P62593).
T1 construct: gift: Natalie Strynadka, University of Alberta
Kind of experiment: Inhibition of TEM-1 β-lactamase, spectrophotometric assay (FAP substrate). Format: biochemical.

The target in experiment [21] is Enterobacter cloacae P99 β-lactamase (Enterobacter cloacae, UniProt P05364). The note with it: Dryjanski and Pratt, Biochemistry 34, 3561-3568 (1995); cited from earlier work.
Chain of Enterobacter cloacae P99 β-lactamase (P05364 21-381): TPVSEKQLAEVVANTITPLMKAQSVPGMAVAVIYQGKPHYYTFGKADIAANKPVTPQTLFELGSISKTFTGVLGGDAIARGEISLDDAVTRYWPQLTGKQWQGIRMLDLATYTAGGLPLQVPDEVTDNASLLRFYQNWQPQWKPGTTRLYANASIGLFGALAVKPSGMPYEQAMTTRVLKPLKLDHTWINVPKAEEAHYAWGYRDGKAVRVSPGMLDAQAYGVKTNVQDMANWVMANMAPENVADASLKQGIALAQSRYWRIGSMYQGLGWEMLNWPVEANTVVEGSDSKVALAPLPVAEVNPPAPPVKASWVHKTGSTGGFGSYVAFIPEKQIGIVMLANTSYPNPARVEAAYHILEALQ

T1 sequence (P62593 24-286 limits assumed): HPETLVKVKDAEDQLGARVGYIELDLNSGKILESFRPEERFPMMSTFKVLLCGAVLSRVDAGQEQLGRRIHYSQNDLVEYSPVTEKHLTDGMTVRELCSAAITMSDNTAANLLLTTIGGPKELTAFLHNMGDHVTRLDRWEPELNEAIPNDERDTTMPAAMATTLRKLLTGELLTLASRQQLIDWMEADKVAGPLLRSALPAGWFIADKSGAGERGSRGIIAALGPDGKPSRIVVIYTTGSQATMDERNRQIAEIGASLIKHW

Turning to `CC(C)(O/N=C(\C(=O)N[C@@H]1C(=O)N2C(C(=O)[O-])=C(C[n+]3ccccc3)CS[C@H]12)c1csc(N)n1)C(=O)O` [CAZ, ceftazidime, reference compound], the MIC in experiment [1] is 32 µg/mL; in experiment [2] it was below 0.5 µg/mL; in experiment [3] it was 256 µg/mL; in [4], 512 µg/mL. Besides, the “MIC, agent alone (CAZ alone / BZB only)” value is on record as 16 in experiment [5]; 16 in [6]; 16 in [7]; 16 in experiment [8]; 32 in experiment [9]; 8 in experiment [10]. Also, the “MIC, agent alone (CAZ alone / BZB only)” value in experiment [11] was determined as 8; in experiment [12], 8; in [13], 32; in [14], 16; in experiment [15] it was 32; in experiment [16] it was 32. For the same compound, the “MIC, agent alone (CAZ alone / BZB only)” value in experiment [17] is 32; in [18], 64.
On to `CN(C)c1cccc2c(S(=O)(=O)Nc3cccc(B(O)O)c3)cccc12` [NSULFB, m-(dansylamidophenyl)-boronic acid, reference compound], for which the inhibition constant (Ki) in experiment [19] amounted to 1.6 µM; in experiment [20], 88 µM. Besides, the “inhibitor of Enterobacter cloacae P99 β-lactamase (in words)” value in experiment [21] is listed as “submicromolar”.

These data come from patent US6417174B1, “Inhibitors of β-lactamases and uses therefor” (Northwestern University, priority 1997, dated 2002).
